Results from article PMC3430861, “The pharmacological profile of ELIC, a prokaryotic GABA-gated receptor” (Neuropharmacology, 2012).
pIC50: −log10 of the molar value.

Assays:
GLIC = tested on: GLIC; design: method as in Alqazzaz et al., 2011; conditions: comparison ELIC vs GLIC; ref Alqazzaz et al., 2011; cited from earlier work
ELIC [1] = target: T1, ELIC (Dickeya chrysanthemi, UniProt P0C7B7); experiment: cell-based; assay type: cell-based, Erwinia chrysanthemi
T1 sequence (P0C7B7 8-321): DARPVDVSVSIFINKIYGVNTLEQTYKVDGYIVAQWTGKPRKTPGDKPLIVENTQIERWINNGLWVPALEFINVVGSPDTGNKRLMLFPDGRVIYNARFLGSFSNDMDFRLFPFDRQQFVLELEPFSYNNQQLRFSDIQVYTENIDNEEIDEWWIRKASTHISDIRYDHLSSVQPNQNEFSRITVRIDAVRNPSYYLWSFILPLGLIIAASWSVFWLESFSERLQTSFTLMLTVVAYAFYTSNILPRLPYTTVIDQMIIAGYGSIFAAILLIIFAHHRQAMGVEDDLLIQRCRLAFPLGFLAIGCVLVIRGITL
Protocol: Xenopus laevis oocyte-positive females were purchased from NASCO (Fort Atkinson, Wisconsin, USA) and maintained according to standard methods. Harvested stage V–VI Xenopus oocytes were washed in four changes of ND96 (96 mM NaCl, 2 mM KCl, 1 mM MgCl2, 5 mM HEPES, pH 7.5), de-folliculated in 1.5 mg ml^−1 collagenase Type 1A for approximately 2 h, washed again in four changes of ND96 and stored in ND96 containing 2.5 mM sodium pyruvate, […], 0.7 mM theophylline.
The ELIC sequence (Genbank accession number POC7B7) was purchased from Genscript as a synthetic gene with optimized codon usage for expression in Escherichia coli. […] Stage V and VI oocytes were injected with 20 ng cRNA, and currents recorded 1–3 days post-injection.

ELIC [2] = target: T1, ELIC; experiment: Inhibition of cysteamine-induced ELIC responses; assay type: cell-based, Erwinia chrysanthemi; conditions: data not shown

SMILES: CC(N)C12CC3CC(CC(C3)C1)C2 (stereo not drawn) [Rimantadine]
- inhibition of GLIC (yes/no) (GLIC): inhibiting both receptors
- inhibition of ELIC (yes/no) (ELIC [1]): inhibiting both receptors
- nH (ELIC [1]): 1.0 ± 0.2
- pIC50 (ELIC [1]; IC50): 4.27
- pIC50 (ELIC [1]; pIC50 (Mean ± SEM)): 4.27
- inhibition of cysteamine-induced responses compared to inhibition of GABA-induced responses (ELIC [2]): no significant differences
